Structures can show the parent of a compound that is named as a salt.
Key:
[1] = tested on: HCT116; test: AC50 cell viability (CellTiter-Glo); higher = less potent; conditions: 48 h
[2] = tested on: HCT116; test: efficacy (fitted maximal change in viability relative to DMSO control); higher = less cytotoxic (negative = loss of viability); conditions: 48 h
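Wherever AC50 cell viability (CellTiter-Glo) is given: HCT116 colorectal carcinoma cells screened at five concentrations per compound, luminescent viability scaled between DMSO wells and empty wells on each plate, curves fitted per compound.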
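Wherever efficacy (fitted maximal change in viability relative to DMSO control) is given: Luminescence-based viability readout, five doses per compound, normalized against on-plate DMSO and empty-well controls, followed by dose-response curve fitting for every drug.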

Compound | AC50 cell viability [1] [µM] | efficacy [2] [%]
CN(C)CCCNC(=O)c1ccc(-c2cc(O)c3ncccc3c2)cc1 [ML324] | 14.8 | -86.4
O=C(NCCCNC(=O)c1cccnc1O)c1cc(-c2ccccc2)on1 [ML327] | 8.33 | -62.3
c1ccc(-c2ccc(CNc3nc(-c4ccccn4)nnc3-c3ccccc3)cc2)cc1 [ML-228] | 1.48 | -77
Cc1ccc([S+](=O)([O-])Nc2cc(C(F)(F)F)ccc2C(=O)Nc2nc(-c3ccccc3)cs2)cc1 [ML-364] | 4.17 | -87
O=C(CCNC(=O)c1ccc(OC(F)(F)F)cc1)N[C@@H]1CCCc2ccccc21 [ML-390] | 0.742 | -57.7
C[C@@H](NC(=O)c1ncnc(N)c1Cl)c1ncc(C(=O)Nc2cc(C(F)(F)F)c(Cl)cn2)s1 [MLN 2480] | 13.2 | -95.4
N[S+](=O)([O-])OC[C@@H]1C[C@@H](n2ccc3c(N[C@H]4CCc5ccccc54)ncnc32)C[C@@H]1O [MLN-4924] | 0.235 | -65.7
OC(=O)C1=CC=C(NC2=NC3=C(C\N=C(/C4=CC(=CC=C34)Cl)C5=C(F)C=CC=C5F)C=N2)C=C1 [MLN-8054] | 0.332 | -38.3
Cn1cc(-c2ccncc2)c(-c2ccc(OCc3ccc4ccccc4n3)cc2)n1 [MP-10] | 18.6 | -72.4
COc1cc(N2CCC(O)CC2)ccc1Nc1cc(Nc2ccccc2[S+](=O)([O-])C(C)C)c2cc[nH]c2n1 [MPS1-IN-1] | 3.72 | -73
COc1ccc([S+](=O)([O-])N2CCc3cccc(-c4ccncc4)c32)cc1 [MPT-0B098] | 0.417 | -61.1
COc1cc(C(=O)NC(=N)Nc2ccc(C)c(NC(=O)c3ccc(-c4ccccc4)cc3)c2)cc(OC)c1OC [MRT-83] | 7.42 | -47.2
COc1ccc([C@@H](O)[C@@H](C)Oc2ccc([C@H]3O[C@H](c4ccc(O[C@H](C)[C@H](O)c5ccc(OC)c(OC)c5)c(OC)c4)[C@H](C)[C@H]3C)cc2OC)cc1OC [Manassantin A] | 0.372 | -81
CNCCCC12CCC(c3ccccc31)c1ccccc12 [Maprotiline hydrochloride] | 20.9 | -93.9
CNC(=O)[C@@H](NC(=O)[C@H](CC(C)C)[C@H](O)C(=O)NO)C(C)(C)C [Marimastat] | 20.9 | -54.3
C[C@@]12OC(=O)[C@@]1(NC(=O)[C@@H]2CCCl)[C@@H](O)[C@H]\3CCC\C=C3 [Marizomib] | 0.118 | -92.6
CN(Cc1ccc(/C=C/C(=O)NO)cc1)CC12CC3CC(CC(C3)C1)C2 [Martinostat] | 0.263 | -89.7
Cc1ccc(NC(=O)c2ccc(CN3CCN(C)CC3)cc2)cc1Nc1nc(-c2cccnc2)cs1 [Masitinib] | 18.6 | -99.1
C[C@H](Cc1ccc(O)c(O)c1)[C@@H](C)Cc1ccc(O)c(O)c1 [Masoprocol] | 18.6 | -46.2

Compound | AC50 cell viability [1] [µM] | efficacy [2] [%]
Cc1cccc(CN2CCN(C(c3ccccc3)c3ccc(Cl)cc3)CC2)c1 (configuration not stated) [Meclizine hydrochloride] | 20.9 | -43.1
CCN(CC)CCNC(=O)c1ccc2nc(-c3ccccc3)c(-c3ccc(CN4CCC(n5c(=O)[nH]c6ccccc65)CC4)cc3)nc2c1 [Merck-22-6] | 8.33 | -99.8
C[N]1N=CC2=C1C=C(C(=C2)OC3=CC=C(NC(=O)\C4=C\C=C(\C)N(C4=O)C5=CC=C(F)C=C5)C=C3F)C6=C[NH]N=C6 [Merestinib] | 3.32 | -41.2
CN(Cc1cnc2nc(N)nc(N)c2n1)c1ccc(C(=O)N[C@@H](CCC(=O)O)C(=O)O)cc1 [Methotrexate] | 0.118 | -84.4
CN(C)C1=CC=C(C=C1)C(C2=CC=C(C=C2)N(C)C)=C/3\C=C/C(/C=C3)=[N+](C)C [Methylrosaniline chloride] | 0.833 | -84.9
COC(=O)/C=C/C(=O)N(O)CCCCNCc1ccc(COC(=O)Nc2cccc3ccccc23)cc1 [Methylstat] | 20.9 | -84.5
CC[C@H](C)C(=O)O[C@H]1CC\C=C2\C=C/[C@H](C)[C@H](CC[C@@H]3C[C@@H](O)CC(=O)O3)[C@@H]12 [Mevastatin] | 14.8 | -58.3
Clc1ccc(COC(Cn2ccnc2)c2ccc(Cl)cc2Cl)c(Cl)c1 (configuration not stated) [Miconazole nitrate] | 20.9 | -97.9
CO[C@@H]1[C@H](N(C)C(=O)c2ccccc2)C[C@H]2O[C@]1(C)n1c3ccccc3c3c4c(c5c6ccccc6n2c5c31)C(=O)NC4 [Midostaurin] | 1.48 | -62.7
CC1(C)CCC2(CC1)N[C@@H](C(=O)N[C@@H]1CC[C@@H](C(N)=O)OC1)[C@H](c1ccnc(Cl)c1F)[C@]21C(=O)Nc2cc(Cl)ccc21 [Milademetan] | 4.02 | -129
CNC(=O)c1nn(C)c2c1C(C)(C)Cc1cnc(Nc3ccc(N4CCN(C)CC4)cc3)nc1-2 [Milciclib] | 0.525 | -63.4
Nc1ncccc1-c1nc2ccc(-c3ccccc3)nc2n1-c1ccc(C2(N)CCC2)cc1 [Miransertib] | 14.8 | -126
O=C1c2c(O)ccc(O)c2C(=O)c2c(NCCNCCO)ccc(NCCNCCO)c21 [Mitoxantrone] | 1.18 | -91.4
CC[S+]([O-])(=O)NC1=CC(=C(OC2=C(F)C=C(F)C=C2)C=C1)\C3=C\N(C)C(=O)C4=C3C=C[NH]4 [Mivebresib (ABBV-075)] | 0.0525 | -97.5
Nc1ccccc1NC(=O)c1ccc(CNc2nccc(-c3cccnc3)n2)cc1 [Mocetinostat] | 0.934 | -73.2
NC/1=N/C(=O)C/2=C(/NCC3CN(CN23)C4=CC=C(C=C4)C(=O)N[C@@H](CCC(O)=O)C(O)=O)N1 (some centres not stated) [Modufolin] | 8.33 | -92
N#CCNC(=O)c1ccc(-c2ccnc(Nc3ccc(N4CCOCC4)cc3)n2)cc1 [Momelotinib] | 3.72 | -74.3
C[C@@H]1C[C@H]2[C@@H]3CC\C4=C\C(=O)\C=C/[C@]4(C)[C@@]3(Cl)[C@@H](O)C[C@]2(C)[C@@]1(OC(=O)C5=CC=CO5)C(=O)CCl [Mometasone furoate] | 20.9 | -78.7
CC[C@@]1([C@@H]2O[C@@H]([C@H]3O[C@@](O)(CO)[C@H](C)C[C@@H]3C)C[C@@H]2C)CC[C@H]([C@]2(C)CC[C@]3(C[C@H](O)[C@@H](C)[C@@H]([C@@H](C)[C@@H](OC)[C@H](C)C(=O)[O-])O3)O2)O1 [Monensin sodium salt] | 0.456 | -47.4

Compound | AC50 cell viability [1] [µM] | efficacy [2] [%]
Oc1ccc(OCc2ccccc2)cc1 [Monobenzone] | 18.6 | -47.7
CCCN(CCC)C(=O)C\1=C\C2=CC=C(C=C2\N=C(N)/C1)C3=CC=C(C=C3)C(=O)N4CCCC4 [Motolimod] | 18.6 | -45.8
FC(F)(F)c1ccc(/C=C/c2nc(COc3ccc(CCCCn4ccnn4)cc3)co2)cc1 [Mubritinib] | 0.0209 | -38.5
COc1c(C)c2c(c(O)c1C/C=C(\C)CCC(=O)OCCN1CCOCC1)C(=O)OC2 [Mycophenolate mofetil] | 2.63 | -80.7
COc1c(C)c2c(c(O)c1C/C=C(\C)CCC(=O)O)C(=O)OC2 [Mycophenolic acid] | 2.09 | -82
CC(C)(O)C[S+](=O)([O-])Nc1ccc2c(c1)CCN(C(=O)COc1cccnc1)C2 [NAMPT-IN-1] | 0.0468 | -92.6
O[C@H]1CC[C@@H](Oc2cccc3cnc(Nc4ccc5nc[nH]c5c4)nc23)CC1 [NCB-1026] | 0.525 | -64.6
COc1ccc(Nc2cc(-c3cnc(N)nc3)nc(N3CCOCC3)n2)cn1 [NIBR-17] | 2.63 | -65.5
[O-][S+]1(=O)/N=C(/NC2=CC(=CC=C2)NC(=O)CCl)C3=CC=CC=C13 [NMS-859] | 26.3 | -85.1
Cc1cc(OCc2nnc(SC3CCCC3)n2-c2cccnc2)ccc1-c1ccc([S+](C)(=O)[O-])cc1 [NMS-873] | 1.48 | -104
CN1CCN(c2ccc(OC(F)(F)F)c(Nc3ncc4c(n3)-c3c(c(C(N)=O)nn3CCO)CC4)c2)CC1 [NMS-P937] | 0.0661 | -63.9
CN\1N(C(=O)\C(=C1C)C(=O)NC2=CC=C(OC3=CC=NC4=C3C(=C[NH]4)C5=CC=CC=C5)C(=C2)F)C6=CC=C(F)C=C6 [NPS-1034] | 14.8 | -59.9
CC(C)(Cc1ccc2ccccc2c1)NC[C@@H](O)COc1cccc(Cl)c1C#N [NPS-2143] | 9.34 | -97.5
COc1cccc([C@@H](C)NCCCc2ccccc2Cl)c1 [NPS-R568] | 23.5 | -99.8
Nc1nc(N)c(N=O)c(OCC2CCCCC2)n1 [NU-6027] | 13.2 | -64.3
N[S+](=O)([O-])c1ccc(Nc2nc(OCC3CCCCC3)c3[nH]cnc3n2)cc1 [NU-6102] | 16.6 | -92.8
O=C1\C=C(OC2=C(C=CC=C12)C3=CC=CC4=C3SC5=C4C=CC=C5)\N6CCOCC6 [NU-7441] | 3.72 | -76.8
Nc1ncnc2c1c(-c1cccc(OCc3ccccc3)c1)cn2[C@H]1C[C@@H](CN2CCC2)C1 [NVP-AEW541] | 5.9 | -85.2
